{"source": "patent US12311028B2", "about": "“Polymer-based macromolecular prodrugs” (The Children's Hospital of Philadelphia, priority 2018, dated 2025)", "key": {"[1]": {"test_system": "NLF and ABCG2-expressing clones", "assay": "Growth of NLF and ABCG2-expressing clones in presence of SN38 or SN22 (IncuCyte)", "format": "cell-based, human", "protocol": "FIG. 7: ABCG2 expression and growth of NLF and transfected clones. (A) Western analysis was performed on NLF and three single-cell clones with an ABCG2 antibody (Santa Cruz), compared to an actin control. Clones 1, 2 and 3 had trace, low and, intermediate levels of ABCG2 expression, respectively. (B) Growth of NLF and ABCG2-expressing clones in the presence of SN38 or SN22 (50 ng/ml). Growth shown at day 4.\nTo evaluate susceptibility of SN38 and SN22 to ABCG2 efflux, an ABCG2-null NB cell line, NLF, was identified. NLF was transfected with an ABCG2 expression vector, and then selected single-cell clones with trace, low, and intermediate levels of ABCG2 expression (FIG. 7A). Next, the sensitivity of NLF and ABCG2-expressing clones to different concentrations of SN38 or SN22 and monitored growth continuously using IncuCyte® S3 Live-Cell Analysis System was assessed."}, "[2]": {"test_system": "BE(2)C cells", "settings": "free SN22 with or without unmodified Pluronic F-108"}, "[3]": {"test_system": "BE(2)C cells", "assay": "Antiproliferative effect of [PEG-SN38-BG]8 on BE(2)C with/without vorinostat or entinostat", "format": "cell-based, human", "settings": "6 hr exposure, 25-100 nM SN-38 equivalent, vorinostat 1.25-5.0 μM, 6 days post treatment", "quoted_text": "Cell growth was measured by bioluminescence. BE(2)C cell survival data at 6 days post treatment were analyzed for hyperadditivity by applying a model z=z0+A·x+B·y+C·[x·y] and determining the significance of the interaction term C.\nThe effect on cell growth kinetics was studied in comparison to free SN-38 or bipartite [PEG-SN38]8 lacking functionalization with BG (A). Cells were exposed for 4 hr to equivalent concentrations of the compounds, corresponding to 125 nM of SN-38. In an additional experiment (B), the response to treatment with [PEG-SN38-BG]8 was examined with/without a HDAC1-specific inhibitor, entinostat (0-5 μM). The doses of the prodrug were varied within a range equivalent to 0-100 nM SN-38, and the exposure duration was fixed at 6 hr. Cell growth was monitored by bioluminescence. The response is shown as % cell survival (mean±SD) at 6 days post-treatment. Experimental data were analyzed for hyperadditivity using a model z=z0+A·x+B·y+C·[x·y] and determining the significance of the interaction term C.\nTo evaluate the specific contribution of the targeting ligand incorporated in the prodrug structure, the cell growth inhibitory activity of [PEG-SN38-BG]8 on NET-expressing, chemoresistant NB cells was compared to that of a control molecule, [PEG-SN38]8, constructed analogously but without the BG moiety."}, "[4]": {"test_system": "BE(2)C cells", "settings": "derived at relapse; cited from earlier work"}, "[5]": {"test_system": "BE(1) cells", "settings": "derived at diagnosis; cited from earlier work"}, "[6]": {"test_system": "BE(2)C cells", "assay": "Antiproliferative effect of PF68-SN38-BG vs PF68-SN38 and SN-38 on BE(2)C, 15-min exposure", "format": "cell-based, human", "settings": "SN-38 equivalent dose 0-25 nM", "description": "Blank Pluronic F-68 had no effect on cell growth."}, "[7]": {"test_system": "orthotopic BE(2)C xenografts", "assay": "Therapeutic efficacy of [PEG-SN38-BG]8 in orthotopic model of refractory NB", "format": "in vivo, mice", "protocol": "FIG. 12: Therapeutic efficacy of [PEG-SN38-BG]8 in an orthotopic model of refractory, high-risk NB. Athymic nude (nu/nu) mice were inoculated with BE(2)C cells (10^6) stably expressing luciferase. Treatment with [PEG-SN38-BG]8 was administered intravenously at a dose equivalent to 10 mg/kg of SN-38 twice a week for 4 weeks. […] A group of mice administered with saline (no treatment) was used as a negative control. In an additional group, the prodrug was administered using the same regimen to animals allowed to reach a 10-fold larger tumor size (2.0 cm^3, ‘large tumors’). Tumor-associated signal was monitored by quantitative bioluminescence. Data presented graphically in (A) are expressed as mean±SD. The survival curves for respective animal groups over a 190-day period are shown in (B).\nFIG. 16: Therapeutic efficacy of [PEG-SN38-BG]8 in an orthotopic model of refractory, high-risk NB. Athymic nude (nu/nu) mice were inoculated with BE(2)C cells (10^6) stably expressing luciferase. Treatment with [PEG-SN38-BG]8 was administered intravenously at a dose equivalent to 10 mg/kg of SN-38 twice a week for 4 weeks. […] Groups of mice administered either with blank PEG or saline (no treatment) were used as negative controls (A). […] Tumor-associated signal was monitored by quantitative bioluminescence. Data are presented as mean±SD."}, "[8]": {"test_system": "orthotopic BE(2)C xenografts", "format": "in vivo", "settings": "PF108-(SN22)2 10 mg/kg SN22 IV once a week x4; irinotecan 10 mg/kg SN38 twice a week", "description": "Saline or chemically unmodified Pluronic F-108 were used as negative controls."}, "[9]": {"test_system": "orthotopic BE(2)C xenograft tumors", "assay": "Therapeutic efficacy of NET-directed Pluronic F-108 tripartite prodrug in refractory NB model", "format": "in vivo, mice", "settings": "4 weeks 2x/week; constructs 10 mg SN-38 per kg, irinotecan 15 mg/kg", "description": "FIG. 21: Therapeutic efficacy of NET-directed delivery in a model of refractory NB. Mice were inoculated in the suprarenal fat pad with 10^6 luciferase-expressing BE(2)C cells. […] Alternatively, tumors were allowed to reach 2 cm^3 before starting therapy (B). Disease progression was monitored by quantitative bioluminescence. Tumor growth data are shown as mean±SD."}, "[10]": {"test_system": "spontaneous NB tumors, TH-MYCN transgenic mouse", "assay": "TH-MYCN transgenic mouse model of de novo NB", "format": "in vivo, mice", "settings": "once a week x4 weeks; PEG-[SN22]4 10 mg/kg/dose, CPT-11 15 mg/kg/dose", "quoted_text": "Mice were treated with saline (N=8), CPT-11 (15 mg/kg/dose; N=7), PEG-[SN38]4 (10 mg/kg/dose; N=6) or PEG-[SN22]4 (10 mg/kg/dose; N=6) IV by tail vein once a week×4 weeks. Treatments started when the mice were about 5 weeks old with a tumor size about 1-2 cm^3.\nPEG-[SN22]4 was also used to treat de novo NBs in a TH-MYCN transgenic mouse model. Spontaneous tumors develop in paraspinal ganglia or in the adrenal gland by 4-5 weeks in almost all mice with two copies of the transgene. Mice were divided into 4 groups once tumors became palpable (4-5 weeks): control-no treatment; CPT-11 treatment (15 mg/kg/dose), PEG-[SN38]4 (10 mg/kg/dose), or PEG-[SN22]4 (10 mg/kg/dose). Mice were treated once a week for 4 weeks. […] Mice were sacrificed when they became symptomatic from tumor burden.\nMice. Six-week-old Foxn1^nu/Foxn1^nu (JAX stock #007850) mice from Jackson Laboratories are used. Mice are maintained under humidity- and temperature-controlled conditions in a light/dark cycle that is set at 12-hour intervals. These mice are in a 129-SvJ background. Mice homozygous for the transgene generally develop tumors within 4-5 weeks."}, "[11]": {"test_system": "disseminated BE(2)C tumor deposits", "assay": "Therapeutic efficacy of [PEG-SN38-BG]8 in model of metastatic, refractory NB", "format": "in vivo, mice", "settings": "from day 25, 4 weeks 2x/week; prodrug 10 mg SN-38 per kg, irinotecan 15 mg/kg", "protocol": "Mice were injected through the tail vein with 10^6 luciferase-expressing BE(2)C cells. […] Tumor-associated signal was monitored by quantitative bioluminescence ((A), data shown as mean±SD). Representative images are included in (B)."}, "[12]": {"test_system": "SKNBE(2)C orthotopic xenograft", "assay": "NB orthotopic xenograft model with chemo-resistant SKNBE(2)C", "format": "in vivo, mice", "settings": "once a week x4 weeks; prodrugs 10 mg/kg/dose, CPT-11 15 mg/kg/dose", "quoted_text": "Chemoresistant, luciferase transfected, SKNBE(2)C cells (107) were injected in the perineal fat pad of nude mice. Mice were divided into five groups: no treatment, or treatment with blank PEG, CPT-11, PEG-[SN38]4 or PEG-[SN22]4 (10 animals per group). Treatment started when tumors reached about 0.2 cm^3.\nMice were divided into five groups: no treatment, or treatment with blank PEG, CPT-11, PEG-[SN22]4 or PEG-[SN38]4 (10 animals per group). Treatment started when tumors reached about 0.2 cm^3.\nNext, PEG-[SN22]4, PEG-[SN38]4 and CPT-11 in a NB orthotopic xenograft mouse model with the chemo-resistant NB line SKNBE(2)C. BE(2)C cells were transfected with a luciferase expression vector to allow for bioluminescent imaging. Mice were treated once a week for 4 weeks with either PEG-[SN22]4 (10 mg/kg/dose), PEG-[SN38]4 (10 mg/kg/dose) or CPT-11 (15 mg/kg/dose).\nBE(2)C cells were transfected with a luciferase expression vector to allow for bioluminescent imaging. Mice were treated once a week for four weeks with either PEG-[SN22]4 (10 mg/kg/dose), PEG-[SN38]4 (10 mg/kg/dose) or CPT-11 (15 mg/kg/dose)."}, "[13]": {"test_system": "orthotopic IMR-32 xenografts", "assay": "Therapeutic efficacy of PF108-(SN22)2 in orthotopic IMR-32 xenograft model", "format": "in vivo, mice", "settings": "PF108-(SN22)2 once a week; irinotecan 2x a week; 10 mg drug per kg", "description": "Mice were inoculated with 10^6 luciferase-expressing IMR-32 cells. […] Tumor-associated signal was monitored by quantitative bioluminescence. Quantitative data are shown as mean±SD."}, "[14]": {"test_system": "orthotopic IMR-32 xenografts", "assay": "Therapeutic efficacy of [PEG-SN38-BG]8 in orthotopic IMR-32 xenograft model", "format": "in vivo, mice", "settings": "doses equivalent to 10 mg SN-38 per kg, 2x week over 4 weeks, from day 21", "description": "(§1) FIG. 15: Therapeutic efficacy of [PEG-SN38-BG]8 in an orthotopic xenograft model of chemo-naïve, MYCN-amplified NB. Mice were inoculated with 10^6 luciferase-expressing IMR-32 cells. […] Tumor-associated signal was monitored by quantitative bioluminescence. Data in (A) are shown as mean±SD. Representative bioluminescent images for each group are included in (B).\nas §1, with “17:” for “15:”, “Representative” for “Representative bioluminescent”, “images” for “images for each group”\nThe effectiveness of the tripartite prodrug strategy in providing sustained anticancer effects against aggressive NB tumors was shown experimentally in an orthotopic IMR-32 xenograft model (FIG. 15)."}}, "note": "Entries after “also recorded” stand apart in the source; their conditions may differ. Like-named read-outs stand apart in the source and are kept apart here."}
{"smiles": "CCc1c2c(nc3ccccc13)-c1cc3c(c(=O)n1C2)COC(=O)[C@]3(O)CC", "note": "[SN22, 7-ethyl-camptothecin]", "values": [{"measurement": "sensitivity of clones with higher ABCG2 levels", "setting": "[1]; NLF clones with trace, low, intermediate ABCG2, 50 ng/ml, day 4", "value": "remained fully sensitive"}, {"measurement": "responsiveness of BE(2)C cells vs IMR-32", "setting": "[2]", "value": "strongly shifted in comparison to IMR-32 toward higher doses and longer exposure durations"}]}
{"smiles": "CCc1c2c(nc3ccc(O)cc13)-c1cc3c(c(=O)n1C2)COC(=O)[C@]3(O)CC", "note": "[SN38, 7-ethyl-10-hydroxy-camptothecin]", "values": [{"measurement": "sensitivity of clones with higher ABCG2 levels", "setting": "[1]", "value": "increasingly resistant"}, {"measurement": "potentiation of antiproliferative effect by vorinostat", "setting": "[3]", "value": "moderately synergized"}, {"measurement": "concentration required for cell growth inhibition by 90% (therapeutic threshold)", "setting": "[4]", "value": 25, "unit": "ng/mL"}, {"measurement": "concentration required for cell growth inhibition by 90%", "setting": "[5]", "value": 2, "unit": "ng/mL"}, {"measurement": "BE(2)C cell growth inhibition", "setting": "[6]", "value": "marginally inhibited"}]}
{"smiles": "CCc1c2c(nc3ccc(OC(=O)N4CCC(N5CCCCC5)CC4)cc13)-c1cc3c(c(=O)n1C2)COC(=O)[C@]3(O)CC", "note": "[irinotecan]", "values": [{"measurement": "tumor growth (bioluminescence), FIG. 16A", "setting": "[7]; 2x/week over 4 weeks, prodrugs 10 mg/kg SN-38, irinotecan 15 mg/kg", "value": "no antitumor effect"}, {"measurement": "tumor growth (bioluminescence), FIG. 12", "setting": "[7]; [PEG-SN38-BG]8 10 mg/kg SN-38 IV twice a week x4 weeks, irinotecan 15 mg/kg twice a week", "value": "marginal therapeutic effect and survival extension"}, {"measurement": "t50% survival (event-free)", "setting": "[7]; small tumors, twice a week x4 weeks", "value": 20, "unit": "days"}, {"measurement": "tumor growth (bioluminescence)", "setting": "[8]", "value": "marginal antitumor effect"}, {"measurement": "tumor growth (bioluminescence)", "setting": "[9]", "value": "marginal effect"}, {"measurement": "tumor response", "setting": "[10]", "value": "only slightly delayed"}, {"measurement": "disease progression (bioluminescence)", "setting": "[11]", "value": "no significant effect on the disease progression"}, {"measurement": "tumor response during treatment", "setting": "[12]", "value": "had no effect; also recorded: had very little effect; also recorded: only slightly delayed"}, {"measurement": "tumor response (bioluminescence)", "setting": "[13]", "value": "only a transient response"}, {"measurement": "tumor response (bioluminescence)", "setting": "[14]", "value": "tumors starting to regrow immediately after treatment cessation; also recorded: able to inhibit tumor growth for the duration of treatment"}]}
